Measurements reported in patent US10039729B2, “Use of kukoamine A and kukoamine B” (Tianjin Chase Sun Pharmaceutical Co., Ltd., priority 2010, dated 2018).

How the values were obtained:
[1] = test system: murine peritoneal macrophages; assay: mRNA expression of TNF-α and IL-6 in murine peritoneal macrophages stimulated by LPS and CpG DNA; assay type: cell-based; conditions: 100, 200 μM, dose-dependent
From the text: 16.1 Methods: Influence of KB on the mRNA expression of TNF-α and IL-6 in murine peritoneal macrophages stimulated by LPS and CpG DNA was observed. Methods were the same as embodiment 15.

[2] = test system: murine peritoneal macrophages; assay: Vitality of murine peritoneal macrophages (MTT method); assay type: cell-based; conditions: KB or KB plus LPS or CpG DNA; 24 h
Procedure: (2) Influence on vitality of murine peritoneal macrophages: Experiment methods are as above. Influences of the combination of KB with LPS or CpG DNA on vitality of murine peritoneal macrophages were assayed.

NF-κB = NF-κB activation in RAW264.7 cells (ELISA of nuclear p50/p65, luciferase reporter gene assay); assay type: cell-based, murine; conditions: KB 200 μM
Procedure: […]
Detection of NF-κB activation using ELISA: Each well was added with 30 μl binding solution (3.2 μl DTT and 16.2 μl Herring sperm DNA were diluted in 1.6 ml binding solutions); each sample well was added with 20 μl sample ([…]); positive control wells was added with 20 μl p50; blank control wells were added with 20 μl dissolution buffer (0.9 μl 1M DTT and 1.8 μl protease inhibitors was diluted in 177.3 μl dissolution buffer AM2); the microtiter plate was shaken for 30 seconds for completely mixing, incubated at room temperature for 1 h, and then washed thrice with 200 μl 1×wash solution (450 μl 10×wash solution were diluted in 4.05 ml ddH2O) and gentle shaking for 5 min each time; each well was added with 100 μl NF-κB antibody (1:1000), incubated for 1 h, then washed thrice with 200 μl 1×wash solution and gentle shaking for 5 min each time; each well was added with 100 μl HRP antibody (1:1000), incubated for 1 h, then washed four times with 200 μl 1×wash solution and gentle shaken for 5 min each time; each well was added with 100 μl detection reagent, incubated for 5 min away from light, and then added with 100 μl stop solution; the absorbance value at 450 nm of each well was detected. […]

RAW264.7 cells = assay: Western blot of IκB-α and p38 phosphorylation in RAW264.7 cells; assay type: cell-based, murine
Procedure: Extraction of cytoplasmic protein: RAW264.7 cells were diluted to 1×10^6/ml in DMEM supplemented with 10% (v/v) NCS; 5 ml of the above suspension was transferred into cell culture bottles and cultured at 37° C. in a 5% CO2 humidified incubator for 4 h; a preliminary experiment was first performed, in which RAW264.7 cells were stimulated by LPS (100 ng/ml), CpG DNA (10 μg/ml), TNF-α (50 ng/ml) or IL-1β (50 ng/ml) for 15, 30, 45 and 60 min respectively; for the purpose of formal experiment a medium group, a KB control group, stimulation group (LPS, CpG DNA, TNF-α or IL-1β) and a KB treatment group (LPS+KB group, CpG DNA+KB group, TNF-α+KB group and IL-1β+KB group) were established; no reagent was added in medium group; KB control group was only added with KB (200 μM); stimulation group was added with LPS (100 ng/ml), CpG DNA (10 μg/ml), TNF-α (50 ng/ml) or IL-1β (50 ng/ml); KB treatment group was added with KB (100, 200 μM) in the meantime of adding LPS, CpG DNA, TNF-α or IL-1β; the duration time of cell culture was based on the preliminary experiment (30 min); cells were washed with PBS and centrifuged to collect cells; supernatant was sucked and discarded; the cell pellet was collected for further experiment; each 20 μl cell pellet was added with 200 μl cytoplasm protein extraction reagents supplemented with PMSF, shook vigorously for 5 seconds to completely suspend and disperse the cell pellet, chilled for 10 to 15 min in an ice bath, centrifuged at 12,000 g at 4° C. for 5 min; the supernatant was instantly transferred into a precooled plastic tube, which was the cytoplasmic protein obtained by extraction;
(3) Sample preparation: Protein sample was mixed with 5× concentrated loading buffer in proportion of 4:1, and denatured at 100° C. for 5 min;
(5) Loading: Sample loading volume was adjusted according to protein concentration to ensure 20 μg protein content of each sample; samples were loaded with microsyringe (5 μl protein molecular weight marker were loaded); […]

[3] = KB 100 and 200 μM, 30 min, western blot

## NCCCN(CCCCNCCCNC(=O)CCc1ccc(O)c(O)c1)C(=O)CCc1ccc(O)c(O)c1 [KB, Kukoamine B]
[1]
  mRNA expressions of TNF-α and IL-6 up-regulated by CpG DNA: significantly inhibit the mRNA expressions
  mRNA expressions of TNF-α and IL-6 up-regulated by LPS: significantly inhibit the mRNA expressions
[2]
  vitality of murine peritoneal macrophages: The same result was also obtained
NF-κB; 2 h, ELISA
  increase of p50 and p65 levels in nuclear proteins induced by LPS and CpG DNA: significantly inhibited
NF-κB; 6 h
  NF-κB activation induced by LPS and CpG DNA (luciferase reporter gene assay): inhibit NF-κB activation
RAW264.7 cells; KB 200 μM alone vs medium group
  expression of IκB-α and p-IκB-α, KB alone: had no influence
RAW264.7 cells; [3]
  degradation of IκB-α and up-regulated expression of p-IκB-α induced by LPS and CpG DNA: both were significantly inhibited
  p-p38 expression induced by LPS and CpG DNA: significantly inhibited
